PMC7703542 (Proceedings of the National Academy of Sciences of the …, 2020)

Target: PdF1 γCC (PdF1) (Paracoccus denitrificans, UniProt A1B8N8+A1B8P0)
Assay: single-molecule rotation assay, Mg-ADP inhibited pauses
Format: biochemical
Details: 1 µM ADP with 1 µM ATP, no ADP-trapping system, 0.1% LDAO

Sequence of PdF1 γCC (PdF1) (A1B8P0 whole entry): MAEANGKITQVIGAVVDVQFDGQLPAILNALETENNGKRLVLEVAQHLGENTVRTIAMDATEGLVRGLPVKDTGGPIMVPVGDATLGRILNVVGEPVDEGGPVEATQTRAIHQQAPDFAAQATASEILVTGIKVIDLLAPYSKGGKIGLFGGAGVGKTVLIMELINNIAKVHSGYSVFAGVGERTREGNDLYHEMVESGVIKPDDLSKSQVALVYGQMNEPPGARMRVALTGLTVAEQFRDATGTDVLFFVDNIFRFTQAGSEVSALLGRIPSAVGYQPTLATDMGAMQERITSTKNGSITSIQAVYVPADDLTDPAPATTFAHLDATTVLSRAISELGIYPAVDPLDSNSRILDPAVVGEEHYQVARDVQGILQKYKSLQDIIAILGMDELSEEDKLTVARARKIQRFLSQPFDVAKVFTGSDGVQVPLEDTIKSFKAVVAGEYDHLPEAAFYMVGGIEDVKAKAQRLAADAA
Sequence of PdF1 γCC (PdF1) (A1B8N8 whole entry): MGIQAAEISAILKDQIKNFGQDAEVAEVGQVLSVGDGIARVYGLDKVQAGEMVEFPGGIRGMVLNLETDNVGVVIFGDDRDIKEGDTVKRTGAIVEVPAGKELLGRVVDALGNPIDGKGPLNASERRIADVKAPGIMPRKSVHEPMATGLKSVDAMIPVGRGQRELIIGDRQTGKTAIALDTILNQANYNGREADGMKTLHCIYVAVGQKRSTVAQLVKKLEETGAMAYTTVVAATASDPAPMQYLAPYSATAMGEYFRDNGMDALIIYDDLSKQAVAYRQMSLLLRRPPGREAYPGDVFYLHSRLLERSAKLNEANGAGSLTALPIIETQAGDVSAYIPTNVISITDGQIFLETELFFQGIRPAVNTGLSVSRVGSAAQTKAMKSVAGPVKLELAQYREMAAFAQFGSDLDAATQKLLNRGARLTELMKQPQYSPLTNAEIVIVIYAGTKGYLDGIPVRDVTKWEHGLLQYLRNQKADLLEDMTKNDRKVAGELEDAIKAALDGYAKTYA
Sequence of PdF1 γCC (PdF1) (A1B8N9 whole entry Q115C/D214C partner): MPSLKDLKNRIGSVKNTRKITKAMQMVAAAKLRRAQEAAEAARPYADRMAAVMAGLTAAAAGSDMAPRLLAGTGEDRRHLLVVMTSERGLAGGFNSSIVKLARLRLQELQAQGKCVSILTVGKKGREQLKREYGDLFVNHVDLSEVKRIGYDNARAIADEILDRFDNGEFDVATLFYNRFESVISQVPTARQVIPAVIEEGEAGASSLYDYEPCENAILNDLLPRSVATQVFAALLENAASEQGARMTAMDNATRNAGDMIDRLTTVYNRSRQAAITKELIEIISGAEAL
Sequence of PdF1 γCC (PdF1) (A1B8N7 whole entry partner): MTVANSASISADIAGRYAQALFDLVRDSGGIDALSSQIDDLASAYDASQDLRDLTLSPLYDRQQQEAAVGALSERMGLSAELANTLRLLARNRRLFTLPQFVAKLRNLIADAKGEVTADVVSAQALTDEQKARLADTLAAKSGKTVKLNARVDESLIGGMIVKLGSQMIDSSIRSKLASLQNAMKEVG
Sequence of PdF1 γCC (PdF1) (A1B8P1 whole entry partner): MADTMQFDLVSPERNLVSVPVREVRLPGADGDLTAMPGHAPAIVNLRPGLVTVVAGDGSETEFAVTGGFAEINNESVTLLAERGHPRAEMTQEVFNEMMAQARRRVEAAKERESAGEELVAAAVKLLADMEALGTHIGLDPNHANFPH

Nc1ncnc2c1ncn2[C@@H]1O[C@H](COP(=O)(O)OP(=O)(O)O)[C@@H](O)[C@H]1O [ADP]
single-molecule rotation assay, Mg-ADP inhibited pauses: supporting the conclusion that they are a result of Mg-ADP inhibition
